From the NIST ThermoML archive (doi:10.1021/je050429b)
± gives the expanded uncertainty stated by the source.

Settings: Gas, Oscillating disk viscometry

SMILES: CO [methanol]
- viscosity (297.41 K, Amount density=10.1 mol/m3): 0.009532 ± 0.00049 mPa·s
- viscosity (297.43 K, Amount density=8.17 mol/m3): 0.009551 ± 0.00049 mPa·s
- viscosity (297.64 K, Amount density=3.79 mol/m3): 0.009594 ± 0.00049 mPa·s
- viscosity (297.92 K, Amount density=38.68 mol/m3): 0.009555 ± 0.00049 mPa·s
- viscosity (298.16 K, Amount density=6.32 mol/m3): 0.009594 ± 0.00049 mPa·s
- viscosity (298.54 K, Amount density=13.2 mol/m3): 0.009579 ± 0.00049 mPa·s
- viscosity (298.71 K, Amount density=49.53 mol/m3): 0.009576 ± 0.00049 mPa·s
- viscosity (299.79 K, Amount density=32.22 mol/m3): 0.009602 ± 0.00049 mPa·s
- viscosity (299.92 K, Amount density=24.58 mol/m3): 0.009618 ± 0.00049 mPa·s
- viscosity (301.53 K, Amount density=17.93 mol/m3): 0.009672 ± 0.00049 mPa·s
- viscosity (310.88 K, Amount density=24.58 mol/m3): 0.009948 ± 0.0005 mPa·s
- viscosity (311.12 K, Amount density=17.93 mol/m3): 0.009959 ± 0.0005 mPa·s
- viscosity (311.23 K, Amount density=8.17 mol/m3): 0.01002 ± 0.0005 mPa·s
- viscosity (311.6 K, Amount density=32.22 mol/m3): 0.009969 ± 0.0005 mPa·s
- viscosity (311.6 K, Amount density=38.68 mol/m3): 0.009971 ± 0.0005 mPa·s
- viscosity (312.25 K, Amount density=6.32 mol/m3): 0.01008 ± 0.0005 mPa·s
- viscosity (312.54 K, Amount density=3.79 mol/m3): 0.0101 ± 0.0005 mPa·s
- viscosity (313.89 K, Amount density=10.1 mol/m3): 0.01008 ± 0.0005 mPa·s
- viscosity (314.18 K, Amount density=13.2 mol/m3): 0.01008 ± 0.0005 mPa·s
- viscosity (314.2 K, Amount density=49.53 mol/m3): 0.01004 ± 0.0005 mPa·s
- viscosity (324.75 K, Amount density=3.79 mol/m3): 0.0105 ± 0.00052 mPa·s
- viscosity (324.77 K, Amount density=49.53 mol/m3): 0.01037 ± 0.00051 mPa·s
- viscosity (324.78 K, Amount density=32.22 mol/m3): 0.01038 ± 0.00051 mPa·s
- viscosity (325.15 K, Amount density=8.17 mol/m3): 0.0105 ± 0.00052 mPa·s
- viscosity (325.22 K, Amount density=10.1 mol/m3): 0.0105 ± 0.00052 mPa·s
- viscosity (325.59 K, Amount density=17.93 mol/m3): 0.01046 ± 0.00051 mPa·s
- viscosity (325.76 K, Amount density=13.2 mol/m3): 0.01049 ± 0.00052 mPa·s
- viscosity (325.91 K, Amount density=6.32 mol/m3): 0.01054 ± 0.00052 mPa·s
- viscosity (325.98 K, Amount density=24.58 mol/m3): 0.01042 ± 0.00051 mPa·s
- viscosity (326.88 K, Amount density=38.68 mol/m3): 0.01044 ± 0.00051 mPa·s
- viscosity (338.47 K, Amount density=8.17 mol/m3): 0.01095 ± 0.00053 mPa·s
- viscosity (338.62 K, Amount density=10.1 mol/m3): 0.01094 ± 0.00053 mPa·s
- viscosity (338.66 K, Amount density=32.22 mol/m3): 0.01083 ± 0.00052 mPa·s
- viscosity (338.69 K, Amount density=3.79 mol/m3): 0.01098 ± 0.00053 mPa·s
- viscosity (338.72 K, Amount density=38.68 mol/m3): 0.0108 ± 0.00052 mPa·s
- viscosity (338.81 K, Amount density=49.53 mol/m3): 0.01077 ± 0.00052 mPa·s
- viscosity (339.25 K, Amount density=17.93 mol/m3): 0.01094 ± 0.00053 mPa·s
- viscosity (339.34 K, Amount density=13.2 mol/m3): 0.01096 ± 0.00053 mPa·s
- viscosity (339.77 K, Amount density=6.32 mol/m3): 0.01101 ± 0.00053 mPa·s
- viscosity (340.14 K, Amount density=24.58 mol/m3): 0.01092 ± 0.00053 mPa·s
- viscosity (352.35 K, Amount density=49.53 mol/m3): 0.01125 ± 0.00054 mPa·s
- viscosity (352.62 K, Amount density=8.17 mol/m3): 0.01143 ± 0.00054 mPa·s
- viscosity (352.86 K, Amount density=10.1 mol/m3): 0.01142 ± 0.00054 mPa·s
- viscosity (352.91 K, Amount density=3.79 mol/m3): 0.01148 ± 0.00054 mPa·s
- viscosity (352.93 K, Amount density=3.79 mol/m3): 0.01144 ± 0.00054 mPa·s
- viscosity (353.05 K, Amount density=8.17 mol/m3): 0.01146 ± 0.00054 mPa·s
- viscosity (353.06 K, Amount density=38.68 mol/m3): 0.01132 ± 0.00054 mPa·s
- viscosity (353.18 K, Amount density=38.68 mol/m3): 0.01134 ± 0.00054 mPa·s
- viscosity (353.2 K, Amount density=49.53 mol/m3): 0.01127 ± 0.00054 mPa·s
- viscosity (353.22 K, Amount density=13.2 mol/m3): 0.01143 ± 0.00054 mPa·s
- viscosity (353.26 K, Amount density=13.2 mol/m3): 0.01143 ± 0.00054 mPa·s
- viscosity (353.3 K, Amount density=6.32 mol/m3): 0.01148 ± 0.00054 mPa·s
- viscosity (353.44 K, Amount density=10.1 mol/m3): 0.01147 ± 0.00054 mPa·s
- viscosity (353.58 K, Amount density=17.93 mol/m3): 0.01143 ± 0.00054 mPa·s
- viscosity (353.71 K, Amount density=24.58 mol/m3): 0.01142 ± 0.00054 mPa·s
- viscosity (353.78 K, Amount density=32.22 mol/m3): 0.01139 ± 0.00054 mPa·s
- viscosity (355.04 K, Amount density=32.22 mol/m3): 0.01143 ± 0.00054 mPa·s
- viscosity (355.05 K, Amount density=24.58 mol/m3): 0.01143 ± 0.00054 mPa·s
- viscosity (355.5 K, Amount density=6.32 mol/m3): 0.01152 ± 0.00055 mPa·s
- viscosity (355.67 K, Amount density=17.93 mol/m3): 0.01148 ± 0.00055 mPa·s
- viscosity (366.59 K, Amount density=10.1 mol/m3): 0.01189 ± 0.00056 mPa·s
- viscosity (366.82 K, Amount density=8.17 mol/m3): 0.01191 ± 0.00056 mPa·s
- viscosity (366.84 K, Amount density=3.79 mol/m3): 0.01191 ± 0.00056 mPa·s
- viscosity (366.93 K, Amount density=17.93 mol/m3): 0.01188 ± 0.00056 mPa·s
- viscosity (366.99 K, Amount density=32.22 mol/m3): 0.01184 ± 0.00055 mPa·s
- viscosity (367.1 K, Amount density=13.2 mol/m3): 0.01189 ± 0.00056 mPa·s
- viscosity (367.81 K, Amount density=49.53 mol/m3): 0.01182 ± 0.00055 mPa·s
- viscosity (367.84 K, Amount density=6.32 mol/m3): 0.01195 ± 0.00056 mPa·s
- viscosity (367.87 K, Amount density=38.68 mol/m3): 0.01184 ± 0.00055 mPa·s
- viscosity (368.03 K, Amount density=24.58 mol/m3): 0.0119 ± 0.00056 mPa·s
- viscosity (380.86 K, Amount density=10.1 mol/m3): 0.01238 ± 0.00057 mPa·s
- viscosity (380.97 K, Amount density=13.2 mol/m3): 0.01236 ± 0.00057 mPa·s
- viscosity (381.27 K, Amount density=3.79 mol/m3): 0.0124 ± 0.00057 mPa·s
- viscosity (381.27 K, Amount density=49.53 mol/m3): 0.0123 ± 0.00057 mPa·s
- viscosity (381.38 K, Amount density=8.17 mol/m3): 0.01241 ± 0.00057 mPa·s
- viscosity (381.53 K, Amount density=17.93 mol/m3): 0.01238 ± 0.00057 mPa·s
- viscosity (381.9 K, Amount density=38.68 mol/m3): 0.01233 ± 0.00057 mPa·s
- viscosity (381.92 K, Amount density=32.22 mol/m3): 0.01237 ± 0.00057 mPa·s
- viscosity (382.15 K, Amount density=6.32 mol/m3): 0.01244 ± 0.00057 mPa·s
- viscosity (383.55 K, Amount density=24.58 mol/m3): 0.01243 ± 0.00057 mPa·s
- viscosity (394.63 K, Amount density=10.1 mol/m3): 0.01285 ± 0.00059 mPa·s
- viscosity (394.76 K, Amount density=8.17 mol/m3): 0.01286 ± 0.00059 mPa·s
